Source: patent US11976072B2, “Diacylglycerol kinase modulating compounds” (priority 2021, dated 2024)

What was measured:
[1] = target: human DGKα (Homo sapiens, UniProt P23743); test: DGKα Biochemical Activity Assay (ADP-Glo); conditions: recombinant DGKα 1 nM, 100 μM ATP, 18:1 DAG/POPS/octylglucoside micelles, 1 hour at 25° C.; geometric mean; read-out: HTBS DGKa 1X ATP KM IC50;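 note: luminescent detection of ADP produced as DGKα phosphorylates DAG to phosphatidic acid, IC50 from four-parameter nonlinear curve fit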
Sequence of human DGKα (P23743 whole entry): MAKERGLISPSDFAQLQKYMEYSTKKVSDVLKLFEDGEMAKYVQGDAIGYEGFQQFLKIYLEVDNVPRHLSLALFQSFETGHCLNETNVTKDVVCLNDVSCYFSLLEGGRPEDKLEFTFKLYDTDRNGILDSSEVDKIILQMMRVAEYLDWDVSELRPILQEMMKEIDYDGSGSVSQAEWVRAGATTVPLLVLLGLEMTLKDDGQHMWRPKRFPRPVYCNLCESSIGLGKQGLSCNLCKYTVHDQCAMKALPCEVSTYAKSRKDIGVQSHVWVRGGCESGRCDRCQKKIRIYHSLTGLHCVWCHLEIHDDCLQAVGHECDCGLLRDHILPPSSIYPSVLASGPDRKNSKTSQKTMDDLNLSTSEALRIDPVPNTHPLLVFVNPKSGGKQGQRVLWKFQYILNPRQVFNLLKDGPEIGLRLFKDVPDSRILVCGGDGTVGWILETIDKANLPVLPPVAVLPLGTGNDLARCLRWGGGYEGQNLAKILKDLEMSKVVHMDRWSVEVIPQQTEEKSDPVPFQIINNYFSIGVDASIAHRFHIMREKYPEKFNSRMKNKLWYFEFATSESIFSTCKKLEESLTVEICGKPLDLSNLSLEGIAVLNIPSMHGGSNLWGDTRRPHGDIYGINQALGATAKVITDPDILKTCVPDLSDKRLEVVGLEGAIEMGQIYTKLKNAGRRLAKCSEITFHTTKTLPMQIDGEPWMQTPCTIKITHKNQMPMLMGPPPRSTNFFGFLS

[2] = system: Jurkat NFκB-luciferase cells; test: Jurkat NFκB-Luciferase Assay; format: cell-based; conditions: Homo sapiens; Jurkat NFκB-luciferase cells activated with anti-CD3 antibody (OKT3), 2.5 hrs at 37° C.; geometric mean; read-out: DGK NFKb Luciferase EC50
Summary of the method: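 Jurkat NFκB-luciferase reporter cells at 1 million cells/ml in RPMI with 10% FBS were added to antibody-coated, compound-containing wells. Luciferase activity read by One-Glo Ex luminescence 7 minutes after reagent addition.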

Row | Structure (SMILES) | IC50 [1] | EC50 [2]
1 | Cc1nnc2nc(N3CCOCc4c(C#CC(C)(C)C(=O)NC5(C(F)(F)F)CC5)cccc43)c3c(F)c(F)ccc3n12 [Example 64, 4-(1-(6,7-difluoro-1-methyl-[1,2,4]triazolo[4,3-a]quinazolin-5-yl)-1,2,3,5-tetrahydrobenzo[e][1,4]oxazepin-6-yl)-2,2-dimethyl-N-(1-(trifluoromethyl)cyclopropyl)but-3-ynamide] | 9.97 nM | 7.43 nM
2 | Cc1nnc2nc(N(CC(F)F)c3cc(F)cc(C#CC(C)(C)c4cccnc4)c3)c3c(F)c(F)ccc3n12 [Example 67, N-(2,2-difluoroethyl)-6,7-difluoro-N-(3-fluoro-5-(3-methyl-3-(pyridin-3-yl)but-1-yn-1-yl)phenyl)-1-methyl-[1,2,4]triazolo[4,3-a]quinazolin-5-amine] | 156 nM | 11.6 nM
3 | Cc1nnc2nc(N3CCCc4c(C#CC(C)(C)c5ccccn5)cccc43)c3c(F)cccc3n12 [Example 71, 6-fluoro-1-methyl-5-(5-(3-methyl-3-(pyridin-2-yl)but-1-yn-1-yl)-3,4-dihydroquinolin-1(2H)-yl)-[1,2,4]triazolo[4,3-a]quinazoline] | 124 nM | 11.3 nM
4 | Cc1cnc(C(C)(C)C#Cc2cccc3c2CCCN3c2nc3nnc(C)n3c3cccc(F)c23)o1 [Example 72, 2-(4-(1-(6-fluoro-1-methyl-[1,2,4]triazolo[4,3-a]quinazolin-5-yl)-1,2,3,4-tetrahydroquinolin-5-yl)-2-methylbut-3-yn-2-yl)-5-methyloxazole] | 19.8 nM | 2.2 nM
5 | Cc1nnc2nc(N3CCCc4c(C#CC(C)(C)C(=O)O)cccc43)c3c(F)cccc3n12 [Example 73, 4-(1-(6-fluoro-1-methyl-[1,2,4]triazolo[4,3-a]quinazolin-5-yl)-1,2,3,4-tetrahydroquinolin-5-yl)-2,2-dimethylbut-3-ynoic Acid] | 61.3 nM | 10.8 nM
6 | COc1ccc(C#Cc2cc(N(CC(F)F)c3nc4nnc(C)n4c4cccc(F)c34)ccn2)cn1 [Example 74, N-(2,2-difluoroethyl)-6-fluoro-N-(2-((6-methoxypyridin-3-yl)ethynyl)pyridin-4-yl)-1-methyl-[1,2,4]triazolo[4,3-a]quinazolin-5-amine] | 6.1 nM | 1.95 nM
7 | COc1ccc(C#Cc2nccc3c2CCCN3c2nc3nnc(C)n3c3cccc(F)c23)cn1 [Example 75, 6-fluoro-5-(5-((6-methoxypyridin-3-yl)ethynyl)-3,4-dihydro-1,6-naphthyridin-1(2H)-yl)-1-methyl-[1,2,4]triazolo[4,3-a]quinazoline] | 28.9 nM | 3.41 nM
8 | Cc1nccn1C(C)(C)C#Cc1cccc2c1CCCN2c1nc2nnc(C)n2c2cccc(F)c12 [Example 76, 6-fluoro-1-methyl-5-(5-(3-methyl-3-(2-methyl-1H-imidazol-1-yl)but-1-yn-1-yl)-3,4-dihydroquinolin-1(2H)-yl)-[1,2,4]triazolo[4,3-a]quinazoline] | 13.4 nM | 8.01 nM
9 | Cc1nc(C(C)(C)C#Cc2cccc3c2CCCN3c2nc3nnc(C)n3c3cccc(F)c23)oc1C [Example 77, 2-(4-(1-(6-fluoro-1-methyl-[1,2,4]triazolo[4,3-a]quinazolin-5-yl)-1,2,3,4-tetrahydroquinolin-5-yl)-2-methylbut-3-yn-2-yl)-4,5-dimethyloxazole] | 15.5 nM | 1.94 nM
10 | Cc1nnc2nc(N3CCCc4c(C#CC(C)(C)c5ncco5)cccc43)c3c(F)cccc3n12 [Example 79, 2-(4-(1-(6-fluoro-1-methyl-[1,2,4]triazolo[4,3-a]quinazolin-5-yl)-1,2,3,4-tetrahydroquinolin-5-yl)-2-methylbut-3-yn-2-yl)oxazole] | 22.6 nM | 2.54 nM
11 | Cc1nnc2nc(N(CC(F)F)c3ccnc(C#CC4CC4)c3)c3c(F)c(F)ccc3n12 [Example 81, N-(2-(cyclopropylethynyl)pyridin-4-yl)-N-(2,2-difluoroethyl)-6,7-difluoro-1-methyl-[1,2,4]triazolo[4,3-a]quinazolin-5-amine] | 10.4 nM | 30.7 nM
12 | Cc1nnc2nc(N3CCCc4c(C#CC5(C)CC5)cncc43)c3c(F)c(F)ccc3n12 [Example 83, 6,7-difluoro-1-methyl-5-(5-((1-methylcyclopropyl)ethynyl)-3,4-dihydro-1,7-naphthyridin-1(2H)-yl)-[1,2,4]triazolo[4,3-a]quinazoline] | 8.49 nM | 1.21 nM
13 | Cc1nnc2nc(N3CCCc4c3ccnc4C#CC3(C)CC3)c3c(F)c(F)ccc3n12 [Example 85, 6,7-difluoro-1-methyl-5-(5-((1-methylcyclopropyl)ethynyl)-3,4-dihydro-1,6-naphthyridin-1(2H)-yl)-[1,2,4]triazolo[4,3-a]quinazoline] | 7.21 nM | 2.24 nM
14 | Cc1nnc2nc(N(CC(F)F)c3ccnc(C#CC4(C)CC4)c3)c3c(F)c(F)ccc3n12 [Example 91, N-(2,2-difluoroethyl)-6,7-difluoro-1-methyl-N-(2-((1-methylcyclopropyl)ethynyl)pyridin-4-yl)-[1,2,4]triazolo[4,3-a]quinazolin-5-amine] | 3.43 nM | 3.83 nM

Further molecules by falling IC50 [1], results first:

Row | IC50 [1] | EC50 [2] | Structure (SMILES)
15 | 191 nM | 9.68 nM | Cc1nnc2nc(N(CC(F)F)c3cc(F)cc(C#CC(C)(C)c4ccccn4)c3)c3c(F)c(F)ccc3n12 [Example 68, N-(2,2-difluoroethyl)-6,7-difluoro-N-(3-fluoro-5-(3-methyl-3-(pyridin-2-yl)but-1-yn-1-yl)phenyl)-1-methyl-[1,2,4]triazolo[4,3-a]quinazolin-5-amine]
16 | 189 nM | 46.7 nM | Cc1nnc2nc(N3CCCc4c(C#CC(C)(C)C(=O)NC5(C(F)(F)F)CC5)cccc43)c3c(F)cccc3n12 [Example 65, 4-(1-(6-fluoro-1-methyl-[1,2,4]triazolo[4,3-a]quinazolin-5-yl)-1,2,3,4-tetrahydroquinolin-5-yl)-2,2-dimethyl-N-(1-(trifluoromethyl)cyclopropyl)but-3-ynamide]
17 | 70.5 nM | 2.26 nM | Cc1nnc2nc(N3CCCc4c(C#CC(C)(C)C(=O)N5CCC(F)(F)CC5)cccc43)c3c(F)cccc3n12 [Example 69, 1-(4,4-difluoropiperidin-1-yl)-4-(1-(6-fluoro-1-methyl-[1,2,4]triazolo[4,3-a]quinazolin-5-yl)-1,2,3,4-tetrahydroquinolin-5-yl)-2,2-dimethylbut-3-yn-1-one]
18 | 41.2 nM | 7.73 nM | Cc1nnc2nc(N3CCCc4c(C#CC(C)(C)n5ccnc5)cccc43)c3c(F)cccc3n12 [Example 78, 5-(5-(3-(1H-imidazol-1-yl)-3-methylbut-1-yn-1-yl)-3,4-dihydroquinolin-1(2H)-yl)-6-fluoro-1-methyl-[1,2,4]triazolo[4,3-a]quinazoline]
19 | 29.3 nM | 1.88 nM | Cc1nnc2nc(N3CCCc4c(C#CC(C)(C)C(F)(F)F)cncc43)c3c(F)c(F)ccc3n12 [Example 90, 6,7-difluoro-1-methyl-5-(5-(4,4,4-trifluoro-3,3-dimethylbut-1-yn-1-yl)-3,4-dihydro-1,7-naphthyridin-1(2H)-yl)-[1,2,4]triazolo[4,3-a]quinazoline]
20 | 29.2 nM | 5.62 nM | Cc1nnc2nc(N3CCCc4c(C#CC(C)(C)C(=O)N5CCOC(C)(C)C5)cccc43)c3c(F)cccc3n12 [Example 70, 1-(2,2-dimethylmorpholino)-4-(1-(6-fluoro-1-methyl-[1,2,4]triazolo[4,3-a]quinazolin-5-yl)-1,2,3,4-tetrahydroquinolin-5-yl)-2,2-dimethylbut-3-yn-1-one]
21 | 15.1 nM | 2.15 nM | Cc1nnc2nc(N(CC(F)F)c3ccnc(C#CC(C)(C)C(F)(F)F)c3F)c3c(F)c(F)ccc3n12 [Example 80, N-(2,2-difluoroethyl)-6,7-difluoro-N-(3-fluoro-2-(4,4,4-trifluoro-3,3-dimethylbut-1-yn-1-yl)pyridin-4-yl)-1-methyl-[1,2,4]triazolo[4,3-a]quinazolin-5-amine]
22 | 12.8 nM | 6.78 nM | Cc1cnc(C(C)(C)C#Cc2cccc3c2COCCN3c2nc3nnc(C)n3c3ccc(F)c(F)c23)o1 [Example 66, 1-(6,7-difluoro-1-methyl-[1,2,4]triazolo[4,3-a]quinazolin-5-yl)-6-(3-methyl-3-(5-methyloxazol-2-yl)but-1-yn-1-yl)-1,2,3,5-tetrahydrobenzo[e][1,4]oxazepine]
23 | 11.4 nM | 10.5 nM | Cc1nnc2nc(N(CC(F)F)c3ccnc(C#CC4CC4)c3)c3c(F)cccc3n12 [Example 82, N-(2-(cyclopropylethynyl)pyridin-4-yl)-N-(2,2-difluoroethyl)-6-fluoro-1-methyl-[1,2,4]triazolo[4,3-a]quinazolin-5-amine]
24 | 10.6 nM | 1.14 nM | Cc1nnc2nc(N3CCCc4c(C#CC5(C(F)(F)F)CC5)cncc43)c3c(F)c(F)ccc3n12 [Example 88, 6,7-difluoro-1-methyl-5-(5-((1-(trifluoromethyl)cyclopropyl)ethynyl)-3,4-dihydro-1,7-naphthyridin-1(2H)-yl)-[1,2,4]triazolo[4,3-a]quinazoline]
25 | 5.41 nM | 4.61 nM | Cc1nnc2nc(N(CC(F)F)c3ccnc(C#CC4(C(F)(F)F)CC4)c3F)c3cc(F)ccc3n12 [Example 89]
26 | 5.06 nM | 2.44 nM | Cc1nnc2nc(N(CC(F)F)c3ccnc(C#CC(C)(C)C(F)(F)F)c3)c3c(F)c(F)ccc3n12 [Example 84, N-(2,2-difluoroethyl)-6,7-difluoro-1-methyl-N-(2-(4,4,4-trifluoro-3,3-dimethylbut-1-yn-1-yl)pyridin-4-yl)-[1,2,4]triazolo[4,3-a]quinazolin-5-amine]
27 | 3.5 nM | 7.57 nM | Cc1nnc2nc(N(CC(F)F)c3ccnc(C#CC4CC4)c3)c3cc(F)ccc3n12 [Example 87, N-(2-(cyclopropylethynyl)pyridin-4-yl)-N-(2,2-difluoroethyl)-7-fluoro-1-methyl-[1,2,4]triazolo[4,3-a]quinazolin-5-amine]
